Results on 32 compounds are retold here after ChEMBL document CHEMBL3751705, “Synthesis and antituberculosis activity of indole-pyridine derived hydrazides, hydrazide-hydrazones, and thiosemicarbazones” (Bioorg Med Chem Lett, 2016).

For assay [1], the system named is Mycobacterium tuberculosis. Nature of the assay: Antituberculosis activity against isoniazid-sensitive Mycobacterium tuberculosis H37Rv by microdilution method. The format is functional. (In general: In broth dilution the organism is exposed to a series of concentrations in liquid medium.)
The nature of assay [2]: Selectivity index, ratio of IC50 for C57BL/6 mouse peritoneal macrophages to MIC for Mycobacterium tuberculosis H37Rv.
A short description of assay [3]: Cytotoxicity against C57BL/6 mouse peritoneal macrophages assessed as cell viability by lactate dehydrogenase release assay. The assay is classed as cell-based. The note with it: C57BL/6, Peritoneal macrophage cell.

Converted amounts (≈) assume the structure as drawn. The source made the active and inactive calls. Where only a bound is given, the exact number is not on record here.

As to `NNC(=O)c1cccnc1` [NICOTINIC ACID HYDRAZIDE], it took 5 µg/mL (≈ 36.5 µM) to inhibit growth in assay [1] (MIC).

`NC(=S)N/N=C/c1c(C(=O)O)[nH]c2ccccc12` showed an MIC in assay [1] of more than 10 µg/mL.

As to `COc1ccc2[nH]c(C(=O)O)c(/C=N/NC(N)=S)c2c1`, the MIC in assay [1] was more than 10 µg/mL.

As for `CCOC(=O)c1[nH]c2ccc(C)cc2c1/C=N\NC(=O)c1ccncc1`, in assay [1], the MIC turned out to be 0.05 µg/mL (≈ 0.143 µM). In assay [2], the “Selectivity Index” value is reported as 300. Further, the IC50 in assay [3] is 15 µg/mL (≈ 42.8 µM).

The compound `CCOC(=O)c1[nH]c2ccccc2c1CNNC(=O)c1ccncc1` gave a minimal inhibitory concentration (MIC) in assay [1] of 0.2 µg/mL (≈ 0.591 µM).

Take `CCOC(=O)c1[nH]c2ccccc2c1CN(NC(=O)c1ccncc1)C(=O)c1ccncc1`: the MIC entry in assay [1] is “inactive”.

Consider `O=C(N/N=C\c1c[nH]c2ccccc12)c1ccncc1`, for which 0.1 µg/mL (≈ 0.378 µM) was the least that counted as inhibitory in assay [1] (MIC). For the same compound, the “Selectivity Index” value in assay [2] came out at 400. Moreover, the IC50 in assay [3] was 40 µg/mL (≈ 151 µM).

For `Cc1ccc2[nH]c(C(=O)O)c(/C=N/NC(N)=S)c2c1`, in assay [1], the MIC is more than 10 µg/mL.

Compound `Cc1ccc2[nH]c(C(=O)O)c(/C=N\NC(=O)c3ccncc3)c2c1` showed an MIC in assay [1] of 0.1 µg/mL (≈ 0.31 µM). Moreover, the “Selectivity Index” value in assay [2] came to 250. The half-inhibitory concentration (IC50) in assay [3] is 25 µg/mL (≈ 77.6 µM).

With `CCOC(=O)c1[nH]c2ccc(Br)cc2c1CNNC(=O)c1ccncc1`, the lowest concentration to inhibit growth in assay [1] (MIC) was 10 µg/mL (≈ 24 µM).

`CCOC(=O)c1[nH]c2ccc(C)cc2c1CNNC(=O)c1ccncc1` had an MIC in assay [1] of 0.2 µg/mL (≈ 0.568 µM).

The compound `NNC(=O)c1cc[n+]([O-])cc1` gave a minimal inhibitory concentration (MIC) in assay [1] of 5.2 µg/mL (≈ 34 µM). The “Selectivity Index” value in assay [2] is 11.5. Further, in assay [3], the IC50 worked out at 60 µg/mL (≈ 392 µM).

In assay [1], `CCOC(=O)c1[nH]c2ccccc2c1/C=N\NC(=O)c1cc[n+]([O-])cc1` yielded an MIC of 2 µg/mL (≈ 5.68 µM). Besides, in assay [2], the “Selectivity Index” value is 9. Also, in assay [3], the IC50 was 18 µg/mL (≈ 51.1 µM).

Turning to `CC(=O)n1cc(NNC(=O)c2cccnc2)c2ccccc21`, the MIC in assay [1] stood at 20 µg/mL (≈ 68 µM).

Turning to `CCOC(=O)c1[nH]c2ccccc2c1CNNC(=O)c1cc[n+]([O-])cc1`, in assay [1], inhibition of growth (MIC) required 2 µg/mL (≈ 5.64 µM). Further, the “Selectivity Index” value in assay [2] worked out at 8. Besides, in assay [3], the half-inhibitory concentration (IC50) was 16 µg/mL (≈ 45.2 µM).

Consider `NNC(=O)c1ccc[n+]([O-])c1`, for which, in assay [1], the minimum inhibitory concentration (MIC) was more than 10 µg/mL.

Compound `CCOC(=O)c1[nH]c2ccc(C)cc2c1/C=N/NC(N)=S` showed an MIC in assay [1] of 2 µg/mL (≈ 6.57 µM).

In assay [1], `CC(=O)n1cc(NNC(=O)c2ccc[n+]([O-])c2)c2ccccc21` came in with an MIC of 2 µg/mL (≈ 6.45 µM). In addition, the IC50 in assay [3] was found to be 17 µg/mL (≈ 54.8 µM).

`CCOC(=O)c1[nH]c2ccc(OC)cc2c1/C=N/NC(N)=S` gave an MIC in assay [1] of more than 10 µg/mL.

In assay [1], `CC(=O)N1C/C(=N\NC(N)=S)c2ccccc21` had a minimal inhibitory concentration (MIC) of more than 10 µg/mL.

Consider `O=C(N/N=C\c1c[nH]c2ccccc12)c1cc[n+]([O-])cc1`, for which the lowest concentration to inhibit growth in assay [1] (MIC) was 1 µg/mL (≈ 3.57 µM). Further, the “Selectivity Index” value in assay [2] is on record as 30. Further, in assay [3], the IC50 amounted to 30 µg/mL (≈ 107 µM).

In assay [1], `CCOC(=O)c1[nH]c2ccc(Cl)cc2c1/C=N\NC(=O)c1ccncc1` yielded an MIC of 0.1 µg/mL (≈ 0.27 µM).

On to `CCOC(=O)c1[nH]c2ccccc2c1/C=N\NC(=O)c1ccncc1`, for which it took 0.15 µg/mL (≈ 0.446 µM) to inhibit growth in assay [1] (MIC). Also, the “Selectivity Index” value in assay [2] turned out to be 106.6. Also, the IC50 in assay [3] is 16 µg/mL (≈ 47.6 µM).

Turning to `CCOC(=O)c1[nH]c2ccc(Cl)cc2c1CNNC(=O)c1ccncc1`, the MIC in assay [1] came to 0.2 µg/mL (≈ 0.536 µM).

On to `CC(=O)n1cc(NNC(=O)c2ccncc2)c2ccccc21`, for which, in assay [1], the lowest concentration to inhibit growth (MIC) was 0.2 µg/mL (≈ 0.68 µM). Moreover, in assay [2], the “Selectivity Index” value turned out to be 250. Further, the IC50 in assay [3] is 50 µg/mL (≈ 170 µM).

With `CC(=O)n1cc(N(NC(=O)c2ccncc2)C(=O)Nc2ccc(Cl)cc2)c2ccccc21`, the MIC result in assay [1] is “inactive”.

Consider `CCOC(=O)c1[nH]c2ccccc2c1CNNC(=O)C1CCNCC1.CS(=O)(=O)O`, for which the MIC in assay [1] worked out at 20 µg/mL.

As to `CCOC(=O)c1[nH]c2ccccc2c1CN(NC(=O)c1ccncc1)C(=O)Nc1ccc(Cl)cc1`, the MIC result in assay [1] is “inactive”.

Compound `CC(=O)n1cc(NNC(=O)c2cc[n+]([O-])cc2)c2ccccc21` displayed an MIC in assay [1] of 2 µg/mL (≈ 6.45 µM).

As for `NNC(=O)c1ccncc1` [ISONIAZID], the MIC in assay [1] is 0.06 µg/mL (≈ 0.438 µM). Further, in assay [2], the “Selectivity Index” value is reported as more than 1666. The IC50 in assay [3] is more than 100 µg/mL.

In turn, `O=C(NNCc1c[nH]c2ccccc12)c1ccncc1` gave an MIC in assay [1] of 0.1 µg/mL (≈ 0.376 µM). In addition, in assay [2], the “Selectivity Index” value amounted to 150. For the same compound, in assay [3], the IC50 turned out to be 15 µg/mL (≈ 56.3 µM).

Regarding `NC(=S)N/N=C/c1c(C(=O)O)[nH]c2ccc(Cl)cc12`, the MIC in assay [1] turned out to be 10 µg/mL (≈ 33.7 µM).

For orientation: MIC means the smallest concentration in the dilution series that meets the test's criterion for growth inhibition. One may read the IC50 as the concentration that gives 50% inhibition.
